Test results published in US6994849B2, “Yeast Metschnikowia fructicola NRRL Y-30752 for inhibiting deleterious microorganisms on plants” (State of Israel, Ministry of Agriculture, Agricultural …, priority 2001, dated 2006).

Tested on: Mf
Assay: Compatibility of Mf with agrochemicals (CFU in liquid medium)
Format: cell-based, Metschnikowia fructicola
Settings: TBZ 0.02%; Teldor 0.015%; Mitos 0.025%; Rovral 0.02%; Switch 0.01%; Imazalil 0.005%; 0-48 h, FIG. 8
Description: In order to establish that Mf is suitable for combination with a variety of commonly employed chemical pesticides, ten percent strength of liquid medium (NYDB) with various concentrations of common agrochemicals added was inoculated with a cell suspension of Mf (25 ml of 10^9 cell/ml) and incubated on a rotary shaker at room temperature. The following commercially available agrochemicals were employed: TBZ (0.02%); Teldor (0.015%); Mitos (0.025%); Rovral (0.02%); Switch (0.01%); and Imazalil (0.005%). Samples were aseptically withdrawn from the at 0 time, 24 h and 48 h of incubation. Samples were serially diluted and aliquots of 30 μl of the dilutions were plated on PDA. Plates were incubated at 25° C. for 3–4 days and colony forming units (CFU) were counted.

## C=CCOC(Cn1ccnc1)c1ccc(Cl)cc1Cl (stereo not shown) [Imazalil, 1-(2-2,4-Dichlorophenyl)-2(2-propenyloxy-ethyl)-1Himidazol]
  Effect of agrochemical on growth (CFU) of Mf: slowed, but did not prevent, its growth
